This is an account of results in US8106055B2, “Substituted amide compounds” (Gruenenthal GmbH, priority 2007, dated 2012).

Structures are written as SMILES.

The target in this assay is T1, human μ opiate receptor (Homo sapiens, UniProt P35372).
T1 construct: purchased PerkinElmer Life Sciences, Zaventem, Belgium RB-HOM; host or cells: CHO-K1 cells (membrane preparation)
T1 sequence (P35372 whole entry): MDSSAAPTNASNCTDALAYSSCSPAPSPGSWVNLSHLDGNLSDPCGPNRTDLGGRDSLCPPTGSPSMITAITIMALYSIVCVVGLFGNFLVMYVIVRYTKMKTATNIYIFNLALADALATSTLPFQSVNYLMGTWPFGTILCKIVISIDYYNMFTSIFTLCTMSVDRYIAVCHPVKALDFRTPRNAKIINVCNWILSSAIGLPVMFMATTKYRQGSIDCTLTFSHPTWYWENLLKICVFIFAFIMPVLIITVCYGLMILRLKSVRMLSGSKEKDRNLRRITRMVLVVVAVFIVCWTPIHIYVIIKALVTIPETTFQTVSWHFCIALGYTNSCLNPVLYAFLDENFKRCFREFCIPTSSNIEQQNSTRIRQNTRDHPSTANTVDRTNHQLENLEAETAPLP
Briefly: Affinity for the human μ opiate receptor ([3H]-naloxone displacement, CHO-K1 receptor membrane preparation, SPA). Type of assay: binding. The settings on record: test concentration of 1 μM; read-out: μ (binding on the μ opioid receptor, % inhibition). In outline: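 CHO-K1 membranes expressing human μ receptor incubated 90 min at room temperature with 1 nmol/l [3H]-naloxone and WGA-SPA beads in 50 mmol/l Tris-HCl, 0.06% BSA; 100 μmol/l naloxone defines non-specific binding. Values are % inhibition of specific binding at 1 μM; IC50 converted to Ki by Cheng-Prusoff.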
In the case of `COc1cc(C)c(S(=O)(=O)N(CCOCC(=O)NCCC2CCC(C(c3cccs3)N(C)C)CC2)Cc2ccccc2)c(C)c1` (stereo not shown) [Example 149, 2-(2-(N-benzyl-4-methoxy-2,6-dimethylphenylsulfonamido)ethoxy)-N-(2-(4-((dimethylamino) (thiophen-2-yl)methyl)cyclohexyl)ethyl)acetamide], the inhibition at 1 µM worked out at 91%. With `CCN(CCOCC(=O)NCC1CCC(C(c2cccs2)N(C)C)CC1)S(=O)(=O)c1c(C)cc(OC)c(C)c1C` (stereo not shown) [Example 16, N-((4-((dimethylamino)(thiophen-2-yl)methyl)cyclohexyl)methyl)-2-(2-(N-ethyl-4-methoxy-2,3,6-trimethylphenylsulfonamido)ethoxy)acetamide] the figure was 98%; with `CN(C)C(c1cccc(F)c1)C1CCC(CNC(=O)COCCN(C)S(=O)(=O)c2ccc(Cl)cc2)CC1` (stereo not shown) [Example 158, 2-(2-(4-chloro-N-methylphenylsulfonamido)ethoxy)-N-((4-((dimethylamino)(3-fluorophenyl)methyl)cyclohexyl)methyl)acetamide], 87%. On to `COc1cc(C)c(S(=O)(=O)N(CCOCC(=O)NCC2CCC(C(c3ccccc3)N(C)C)CC2)Cc2ccccc2)c(C)c1` (stereo not shown) [Example 148, 2-(2-(N-benzyl-4-methoxy-2,6-dimethylphenylsulfonamido)ethoxy)-N-((4-((dimethylamino)(phenyl)methyl)cyclohexyl)methyl)acetamide], for which the inhibition at 1 µM came to 90%. With `CN(C)C(c1cccs1)C1CCC(CCNC(=O)COC2CCN(S(=O)(=O)c3ccc(Cl)cc3Cl)C2)CC1` (stereo not shown) [Example 21, 2-(1-(2,4-dichlorophenylsulfonyl)pyrrolidin-3-yloxy)-N-(2-(4-((dimethylamino)(thiophen-2-yl)methyl)cyclohexyl)ethyl)acetamide] the figure was 97%.

Consider `COc1ccc(S(=O)(=O)N2CCCCC2COCC(=O)NCCC2CCC(C(c3cccc(F)c3)N(C)C)CC2)cc1` (stereo not shown) [Example 180, N-(2-(4-((dimethylamino)(3-fluorophenyl)methyl)cyclohexyl)ethyl)-2-((1-(4-methoxyphenylsulfonyl)piperidin-2-yl)methoxy)acetamide], for which the inhibition at 1 µM worked out at 90%. With `CN(C)C(c1cccc(F)c1)C1CCC(CCNC(=O)COCCN(C)S(=O)(=O)c2c(Cl)cc(Cl)cc2Cl)CC1` (stereo not shown) [Example 174, N-(2-(4-((dimethylamino)(3-fluorophenyl)methyl)cyclohexyl)ethyl)-2-(2-(2,4,6-trichloro-N-methylphenylsulfonamido)ethoxy)acetamide] the figure was 90%; with `CN(C)C(c1ccccc1)C1CCC(NC(=O)COCCN(C)S(=O)(=O)c2ccc(Cl)cc2Cl)CC1` (stereo not shown) [Example 33, 2-(2-(2,4-dichloro-N-methylphenylsulfonamido)ethoxy)-N-(4-((dimethylamino)(phenyl)methyl)cyclohexyl)acetamide], 49%; with `CN(C)C(c1cccc(F)c1)C1CCC(CNC(=O)COC2CCN(S(=O)(=O)c3cccc(C(F)(F)F)c3)C2)CC1` (stereo not shown) [Example 170, N-((4-((dimethylamino)(3-fluorophenyl)methyl)cyclohexyl)methyl)-2-(1-(3-(trifluoromethyl)phenylsulfonyl)pyrrolidin-3-yloxy)acetamide], 83%. With `COc1cc(C)c(S(=O)(=O)N2CCC(OCC(=O)NC3CCC(C(c4ccccc4)N(C)C)CC3)C2)c(C)c1` (stereo not shown) [Example 165, N-(4-((dimethylamino)(phenyl)methyl)cyclohexyl)-2-(1-(4-methoxy-2,6-dimethylphenylsulfonyl)pyrrolidin-3-yloxy)acetamide] the figure was 87%; with `CN(C)C(c1cccc(F)c1)C1CCC(CCNC(=O)COCCN(C)S(=O)(=O)c2ccc(Cl)cc2)CC1` (stereo not shown) [Example 186, 2-(2-(4-chloro-N-methylphenylsulfonamido)ethoxy)-N-(2-(4-((dimethylamino)(3-fluorophenyl)methyl)cyclohexyl)ethyl)acetamide], 87%; with `COc1ccc(S(=O)(=O)N2CCC(OCC(=O)NCC3CCC(C(c4cccc(F)c4)N(C)C)CC3)C2)cc1OC` (stereo not shown) [Example 184, 2-(1-(3,4-dimethoxyphenylsulfonyl)pyrrolidin-3-yloxy)-N-((4-((dimethylamino)(3-fluorophenyl)methyl)cyclohexyl)methyl)acetamide], 91%. With `CN(C)C(c1cccs1)C1CCC(CNC(=O)COC2CCN(S(=O)(=O)c3cccc(C(F)(F)F)c3)C2)CC1` (stereo not shown) [Example 25, N-((4-((dimethylamino)(thiophen-2-yl)methyl)cyclohexyl)methyl)-2-(1-(3-(trifluoromethyl)phenylsulfonyl)pyrrolidin-3-yloxy)acetamide] the figure was 97%. `CCN(CCOCC(=O)NC1CCC(C(c2cccc(F)c2)N(C)C)CC1)S(=O)(=O)c1c(C)cc(OC)c(C)c1C` (stereo not shown) [Example 176, N-(4-((dimethylamino)(3-fluorophenyl)methyl)cyclohexyl)-2-(2-(N-ethyl-4-methoxy-2,3,6-trimethylphenylsulfonamido)ethoxy)acetamide]: the inhibition at 1 µM was determined as 87%.

As to `COc1ccc(S(=O)(=O)N2CCCC2COCC(=O)NC2CCC(C(c3cccs3)N(C)C)CC2)cc1` (stereo not shown) [Example 162, N-(4-((dimethylamino)(thiophen-2-yl)methyl)cyclohexyl)-2-((1-(4-methoxyphenylsulfonyl)pyrrolidin-2-yl)methoxy)acetamide], the inhibition at 1 µM amounted to 86%.

As for `COc1cc(C)c(S(=O)(=O)N(C)CCOCC(=O)NCCC2CCC(C(c3cccc(F)c3)N(C)C)CC2)c(C)c1C` (stereo not shown) [Example 183, N-(2-(4-((dimethylamino)(3-fluorophenyl)methyl)cyclohexyl)ethyl)-2-(2-(4-methoxy-N,2,3,6-tetramethylphenylsulfonamido)ethoxy)acetamide], the inhibition at 1 µM is 83%. With `Cc1ccc(S(=O)(=O)N2CCC(OCC(=O)NC3CCC(C(c4cccs4)N(C)C)CC3)C2)cc1` (stereo not shown) [Example 156, N-(4-((dimethylamino)(thiophen-2-yl)methyl)cyclohexyl)-2-(1-tosylpyrrolidin-3-yloxy)acetamide] the figure was 80%; with `COc1cc(C)c(S(=O)(=O)N(C)CCOCC(=O)NCCC2CCC(C(c3cccc(F)c3)N(C)C)CC2)c(C)c1` (stereo not shown) [Example 197, N-(2-(4-((dimethylamino)(3-fluorophenyl)methyl)cyclohexyl)ethyl)-2-(2-(4-methoxy-N,2,6-trimethylphenylsulfonamido)ethoxy)acetamide], 85%. With `CN(C)C(c1cccs1)C1CCC(NC(=O)COCCN(C)S(=O)(=O)c2ccc(F)cc2)CC1` (stereo not shown) [Example 10, N-(4-((dimethylamino)(thiophen-2-yl)methyl)cyclohexyl)-2-(2-(4-fluoro-N-methylphenylsulfonamido)ethoxy)acetamide] the figure was 98%. `CN(C)C(c1ccccc1)C1CCC(CNC(=O)COCCN(C)S(=O)(=O)c2c(Cl)cccc2Cl)CC1` (stereo not shown) [Example 13, 2-(2-(2,6-dichloro-N-methylphenylsulfonamido)ethoxy)-N-((4-((dimethylamino)(phenyl)methyl)cyclohexyl)methyl)acetamide]: the inhibition at 1 µM stood at 98%. With `CN(C)C(c1cccs1)C1CCC(NC(=O)COC2CCN(S(=O)(=O)c3ccc(F)cc3)C2)CC1` (stereo not shown) [Example 28, N-(4-((dimethylamino)(thiophen-2-yl)methyl)cyclohexyl)-2-(1-(4-fluorophenylsulfonyl)pyrrolidin-3-yloxy)acetamide] the figure was 97%; with `COc1ccc(S(=O)(=O)N2CCCCC2COCC(=O)NCCC2CCC(C(c3cccc(F)c3)N(C)C)CC2)cc1OC` (stereo not shown) [Example 191, 2-((1-(3,4-dimethoxyphenylsulfonyl)piperidin-2-yl)methoxy)-N-(2-(4-((dimethylamino)(3-fluorophenyl)methyl)cyclohexyl)ethyl)acetamide], 85%. On to `COc1ccc(S(=O)(=O)N2CCCCC2COCC(=O)NCC2CCC(C(c3cccc(F)c3)N(C)C)CC2)cc1` (stereo not shown) [Example 179, N-((4-((dimethylamino)(3-fluorophenyl)methyl)cyclohexyl)methyl)-2-((1-(4-methoxyphenylsulfonyl)piperidin-2-yl)methoxy)acetamide], for which the inhibition at 1 µM was 85%. Consider `Cc1ccc(S(=O)(=O)N(C)CCOCC(=O)NCC2CCC(C(c3ccccc3)N(C)C)CC2)cc1` (stereo not shown) [Example 157, N-((4-((dimethylamino) (phenyl)methyl)cyclohexyl)methyl)-2-(2-(N,4-dimethylphenylsulfonamido)ethoxy)acetamide], for which the inhibition at 1 µM was 87%.

As to `Cc1cc(C)c(S(=O)(=O)N2CCC(OCC(=O)NC3CCC(C(c4cccs4)N(C)C)CC3)C2)c(C)c1` (stereo not shown) [Example 12, N-(4-((dimethylamino)(thiophen-2-yl)methyl)cyclohexyl)-2-(1-(mesitylsulfonyl)pyrrolidin-3-yloxy)acetamide], the inhibition at 1 µM is 98%.

In the case of `CN(C)C(c1ccccc1)C1CCC(CNC(=O)COCCN(Cc2ccccc2)S(=O)(=O)c2ccccc2)CC1` (stereo not shown) [Example 15, 2-(2-(N-benzylphenylsulfonamido)ethoxy)-N-((4-((dimethylamino)(phenyl)methyl)cyclohexyl)methyl)acetamide], the inhibition at 1 µM was 98%. With `COc1cc(C)c(S(=O)(=O)N2CCCC(OCC(=O)NCC3CCC(C(c4ccccc4)N(C)C)CC3)C2)c(C)c1C` (stereo not shown) [Example 29, N-((4-((dimethylamino)(phenyl)methyl)cyclohexyl)methyl)-2-(1-(4-methoxy-2,3,6-trimethylphenylsulfonyl)piperidin-3-yloxy)acetamide] the figure was 97%; with `COc1cc(C)c(S(=O)(=O)N2CCCC(OCC(=O)NC3CCC(C(c4cccs4)N(C)C)CC3)C2)c(C)c1C` (stereo not shown) [Example 144, N-(4-((dimethylamino)(thiophen-2-yl)methyl)cyclohexyl)-2-(1-(4-methoxy-2,3,6-trimethylphenylsulfonyl)piperidin-3-yloxy)acetamide], 89%.
